Assay results from patent US11505548B2, “Heterocyclic compounds and their use for treatment of helminthic infections and diseases” (Celgene Corporation, priority 2019, dated 2022).

Tested on: microfilariae of Dirofilaria immitis
Assay: Dirofilaria immitis, Microfilaria (DiMF) Assay
Assay type: cell-based
Conditions: read-out: D. immitis activity level (IC50 or MED)
Experimental: Heartworm Screen Dirofilaria immitis (D. immitis)
Dirofilaria immitis, Microfilaria (DiMF) Assay.
Compounds were dissolved and serially diluted in DMSO. Aliquots were spotted to the empty wells of assay plates. Media and microfilariae of Dirofilaria immitis were added to each well to dilute the test compounds to the desired concentrations. Assay plates were incubated for approximately 72 hours, and the larvae in each well were observed microscopically for drug effect. Microfilariae in each well were assessed subjectively for survival or paralysis, and results were reported as Minimum Effective Dose (MED).
Active and selective (DiL4 vs. DiMF potency) example compounds were subsequently evaluated in heartworm positive dog studies to correlate the in vitro selectivity profile with in vivo effects on circulating microfilariae.

SMILES | IC50 [nM]
COc1cccnc1Nc1nc(-c2cc(C(F)(F)F)c(OC3CC3)cn2)ns1 [Compound 134, 3-(5-cyclo-propoxy-4-(trifluoromethyl)pyridin-2-yl)-N-(3-methoxy-pyridin-2-yl)-1,2,4-thiadiazol-5-amine] | 500 to 5000
Cc1nccnc1Nc1nc(-c2ccc(OC(C)C)cn2)ns1 [Compound 135, 3-(5-isoprop-oxypyridin-2-yl)-N-(3-methyl-pyrazin-2-yl)-1,2,4-thia-diazol-5-amine] | 200 to 500
COc1cccnc1Nc1nc(-c2ccc(OC3CC(F)(F)C3)cn2)ns1 [Compound 137, 3-(5-(3,3-difluorocyclo-butoxy)pyridin-2-yl)-N-(3-methoxypyridin-2-yl)-1,2,4-thiadiazol-5-amine] | 500 to 5000
CC(C)Oc1ccc(-c2nsc(Nc3nccnc3N(C)C)n2)nc1 [Compound 144, N2-(3-(5-isoprop-oxypyridin-2-yl)-1,2,4-thiadiazol-5-yl)-N3,N3-dimethyl-pyrazine-2,3-diamine] | 200 to 500
Cc1cccnc1Nc1nc(-c2cc(OC(C)C)c(C(F)(F)F)cn2)ns1 [Compound 152, 3-(4-isoprop-oxy-5-(trifluoromethyl)pyridin-2-yl)-N-(3-methylpyridin-2-yl)-1,2,4-thia-diazol-5-amine] | 200 to 500
CC(C)Oc1ccc(-c2nsc(Nc3ncccc3N(C)C)n2)nn1 [Compound 155, N2-(3-(6-isopropoxy-pyridazin-3-yl)-1,2,4-thiadiazol-5-yl)-N3,N3-dimethyl-pyridine-2,3-diamine] | 500 to 5000
CC(C)Oc1cnc(-c2nsc(Nc3ncccc3N(C)C)n2)cc1C(F)(F)F [Compound 156, N2-(3-(5-isopropoxy-4-(trifluoromethyl)pyridin-2-yl)-1,2,4-thiadiazol-5-yl)-N3,N3-dimethyl-pyridine-2,3-diamine] | 200 to 500
CC(=O)N(C)c1cccnc1Nc1nc(-c2ccc(OC(C)C)cn2)ns1 [Compound 157, N-(2-(3-(5-isopropoxy-pyridin-2-yl)-1,2,4-thiadiazol-5-ylamino)pyridin-3-yl)-N-methyl-acetamide] | 500 to 5000
CC(=O)Nc1cccnc1Nc1nc(-c2ccc(OC(C)C)cn2)ns1 [Compound 161, N-(2-(3-(5-isopropoxy-pyridin-2-yl)-1,2,4-thiadiazol-5-ylamino)pyridin-3-yl)acetamide] | 500 to 5000
COc1cc(C(C)C)cnc1Nc1nc(-c2ccc(OC(C)C)cn2)ns1 [Compound 166, 3-(5-isopropoxy-pyridin-2-yl)-N-(5-isopropyl-3-methoxypyridin-2-yl)-1,2,4-thiadiazol-5-amine] | 500 to 5000
COc1cccnc1Nc1nc(-c2cc(C(F)(F)F)c(OC(C)C)cn2)ns1 [Compound 167, 3-(5-isopropoxy-4-(trifluoromethyl)pyridin-2-yl)-N-(3-methoxypyridin-2-yl)-1,2,4-thiadiazol-5-amine] | 500 to 5000
CC(C)Oc1cnc(-c2nsc(Nc3ncccc3C(C)C)n2)cc1C(F)(F)F [Compound 168, 3-(5-isoprop-oxy-4-(trifluoromethyl)pyridin-2-yl)-N-(3-isopropyl-pyridin-2-yl)-1,2,4-thiadiazol-5-amine] | 200 to 500
CC(C)Oc1ccc(-c2nsc(Nc3ncccc3N(C)C(=O)C3CC3)n2)nc1 [Compound 170, N-(2-(3-(5-isopropoxy-pyridin-2-yl)-1,2,4-thiadiazol-5-ylamino)pyridin-3-yl)-N-methylcyclo-propanecarbox-amide] | 500 to 5000
CC(C)Oc1ccc(-c2nsc(Nc3ncccc3N(C)C(=O)C3CCC3)n2)nc1 [Compound 171, N-(2-(3-(5-isopropoxy-pyridin-2-yl)-1,2,4-thiadiazol-5-ylamino)pyridin-3-yl)-N-methylcyclo-butane-carboxamide] | 500 to 5000
CC(C)Oc1ccc(-c2nsc(Nc3ncccc3N(C)C(=O)C3CCCC3)n2)nc1 [Compound 172, N-(2-(3-(5-isopropoxy-pyridin-2-yl)-1,2,4-thiadiazol-5-ylamino)pyridin-3-yl)-N-methylcyclo-pentane-carboxamide] | 200 to 500
COc1ccnc(-c2nsc(Nc3ccc(C(F)(F)F)cn3)n2)c1 [Compound 176, 3-(4-methoxy-pyridin-2-yl)-N-(5-(trifluoromethyl)pyridin-2-yl)-1,2,4-thiadiazol-5-amine] | < 200
COc1ccnc(-c2nsc(Nc3ccc(C(C)C)cn3)n2)c1 [Compound 177, N-(5-isopropyl-pyridin-2-yl)-3-(4-methoxy-pyridin-2-yl)-1,2,4-thiadiazol-5-amine] | < 200
CC(C)Oc1ccc(-c2nsc(Nc3ncccc3N3CCCC3=O)n2)nc1 [Compound 178, 1-(2-(3-(5-isopropoxy-pyridin-2-yl)-1,2,4-thiadiazol-5-ylamino)pyridin-3-yl)pyrrolidin-2-one] | 500 to 5000
CC(C)Oc1cnc(-c2nsc(Nc3ncccc3N3CCCC3=O)n2)cc1C(F)(F)F [Compound 179, 1-(2-(3-(5-isopropoxy-4-(trifluoromethyl)pyridin-2-yl)-1,2,4-thiadiazol-5-ylamino)pyridin-3-yl)pyrrolidin-2-one] | 500 to 5000
COc1ccnc(-c2nsc(Nc3cc(C(F)(F)F)c(C(C)C)cn3)n2)c1 [Compound 182, N-(5-iso-propyl-4-(trifluoro-methyl)pyridin-2-yl)-3-(4-methoxy-pyridin-2-yl)-1,2,4-thiadiazol-5-amine] | < 200
COc1ccc(Nc2nc(-c3cc(OC4CCCCC4)ccn3)ns2)nc1 [Compound 183, 3-(4-(cyclo-hexyloxy)pyridin-2-yl)-N-(5-methoxypyridin-2-yl)-1,2,4-thiadiazol-5-amine] | < 200
CC(C)Oc1cnc(-c2nsc(Nc3ncccc3N(C)C(=O)C3CC3)n2)cc1C(F)(F)F [Compound 186, N-(2-(3-(5-isopropoxy-4-(trifluoro-methyl)pyridin-2-yl)-1,2,4-thiadiazol-5-ylamino)pyridin-3-yl)-N-methylcyclo-propanecarbox-amide] | 200 to 500
CC(=O)N(C)c1cccnc1Nc1nc(-c2cc(C(F)(F)F)c(OC(C)C)cn2)ns1 [Compound 187, N-(2-(3-(5-isopropoxy-4-(trifluoro-methyl)pyridin-2-yl)-1,2,4-thiadiazol-5-ylamino)pyridin-3-yl)-N-methylacetamide] | 200 to 500
CC(C)Oc1ccc(-c2nsc(Nc3ncccc3C(=O)N(C)C)n2)nc1 [Compound 188, 2-(3-(5-isoprop-oxypyridin-2-yl)-1,2,4-thiadiazol-5-ylamino)-N,N-dimethyl nicotinamide] | 500 to 5000
CC(C)Oc1ccc(-c2nsc(Nc3ncccc3C(=O)N3CCCC3)n2)nc1 [Compound 190, (2-(3-(5-isoprop-oxypyridin-2-yl)-1,2,4-thiadiazol-5-ylamino)pyridin-3-yl) (pyrrolidin-1-yl) methanone] | 500 to 5000
CC(C)Oc1ccc(-c2nsc(Nc3ncccc3C(=O)N(C)C3CC(F)(F)C3)n2)nc1 [Compound 191, N-(3,3-difluoro-cyclobutyl)-2-(3-(5-isoprop-oxypyridin-2-yl)-1,2,4-thiadiazol-5-ylamino)-N-methyl-nicotinamide] | 500 to 5000
CC(C)Oc1ccc(-c2nsc(Nc3ncc(C(=O)NC4CC(F)(F)C4)cc3C(C)C)n2)nc1 [Compound 195, N-(3,3-difluoro-cyclobutyl)-6-(3-(5-isoprop-oxypyridin-2-yl)-1,2,4-thiadiazol-5-ylamino)-5-isopropyl-nicotinamide] | 500 to 5000
